In one assay the target is T1, p38α (Homo sapiens, UniProt Q16539).
T1 construct: p38 MAP Kinases are recombinant human full-length proteins with an amino-terminal GST fusion; GST (N); purchased Upstate (Charlottesville, Va.); host or cells: E. coli
As to the kind of experiment: p38 MAP Kinase assay, ATF2 phosphorylation (ELISA). The class given is biochemical. To be noted: 40 μM ATP. In a few lines: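 ATF2 Thr69 phosphorylation was quantified by ELISA (HRP/TMB, 450 nm) after EDTA termination. Reactions: 6 ng GST-fused full-length human p38α, 15 min compound pre-incubation at room temperature, then 30 min at 37° C with 40 μM ATP and 1.25 μM GST-ATF2 (aa 19-96), pH 7.5 HEPES buffer.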
A general note: An ELISA detects its analyte on a solid surface through an enzyme-linked reagent.

Assay [1] has as its system TNFα release from THP-1 cells. As to the kind of experiment: TNFα release from LPS-stimulated THP-1 cells. Type of assay: cell-based. In a few lines: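 THP-1 cells (10^6 cells/ml on resuspension) preincubated with compound 30 min at 37°C, 5% CO2, final DMSO ≤0.5%, then stimulated with 10 μg/ml LPS for 18 h (TNFα). Supernatants collected for TNFα analysis.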
Setting [2] is: Homo sapiens, THP-1, 18 h, LPS 10 μg/ml, 18 hours, read-out: TNFα (THP-1) IC50.

Molecules are shown by their SMILES. Where two headings read alike, the source gives them in different places.

T1 sequence (Q16539 whole entry, the tested form may be a part): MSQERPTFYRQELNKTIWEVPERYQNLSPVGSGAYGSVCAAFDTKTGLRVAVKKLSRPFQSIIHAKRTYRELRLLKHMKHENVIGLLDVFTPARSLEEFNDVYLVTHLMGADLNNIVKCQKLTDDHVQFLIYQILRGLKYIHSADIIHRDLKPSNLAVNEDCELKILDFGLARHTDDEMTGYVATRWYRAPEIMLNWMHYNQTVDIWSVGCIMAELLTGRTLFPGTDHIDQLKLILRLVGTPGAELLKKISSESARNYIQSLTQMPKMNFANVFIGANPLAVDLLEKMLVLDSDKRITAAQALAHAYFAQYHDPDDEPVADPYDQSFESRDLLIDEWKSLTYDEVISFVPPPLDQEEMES

For orientation: IC50 means the concentration needed to halve the response being measured. Turning to `CC(C)(CO)CNc1nccc(-c2c(-c3ccc(F)cc3)nc3sccn23)n1` [CCXX], the IC50 worked out at 1.56 nM at p38α and 2.41 nM in assay [1] (setting [2]).
For the compound `COc1cccc(-c2nc3sccn3c2-c2ccnc(N[C@H](CO)C(C)C)n2)c1` [CC], the IC50 against p38α is 112 nM; in assay [1] (setting [2]), 93.8 nM.
The corresponding values for `CC(C)[C@H](CO)Nc1nccc(-c2c(-c3ccc(F)cc3)nc3occn23)n1` [CIII] are 7.57 nM and 20 nM.
`C[C@H](O)[C@H](CO)Nc1nccc(-c2c(-c3ccc(F)cc3)nc3occn23)n1` [CIV]: the IC50 turned out to be 8.62 nM on p38α and 6 nM in assay [1] (Homo sapiens, THP-1, 18 h, read-out: TNFα (THP-1) IC50 (nM)).
`CCC(CO)(CO)Nc1nccc(-c2c(-c3ccc(F)cc3)nc3occn23)n1` [CIX]: the IC50 on p38α was determined as 30.5 nM; in assay [1] (setting [2]) it was 19.8 nM.
The corresponding values for `CCOc1nccc(-c2c(-c3ccc(F)cc3)nc3sccn23)n1` [CLI] are 122 nM and 284 nM.
Turning to `COc1nccc(-c2c(-c3ccc(F)cc3)nc3sccn23)n1` [CLV], the figures for the IC50 (at p38α; in assay [1] (setting [2])) were 286 nM and 402 nM, respectively.
Consider `CC(C)C(CO)Nc1nccc(-c2c(-c3ccc(F)cc3)nc3sccn23)n1` (stereo not drawn) [CLXXII], for which the IC50 turned out to be 4.67 nM against p38α and 48.1 nM in assay [1] (setting [2]).
The corresponding values for `COC(=O)[C@@H](CC(C)C)Nc1nccc(-c2c(-c3ccc(F)cc3)nc3sccn23)n1` [CLXXI] are 14.9 nM and 3970 nM.
The corresponding values for `OC[C@H](Cc1ccccc1)Nc1nccc(-c2c(-c3ccc(F)cc3)nc3sccn23)n1` [CLXXXI] are 176 nM and 138 nM.
Consider `CCC(CO)(CO)Nc1nccc(-c2c(-c3ccc(F)cc3)nc3sccn23)n1` [CLXXX], for which the figures for the IC50 (against p38α; in assay [1] (setting [2])) were 80.8 nM and 57.4 nM, respectively.
The corresponding values for `Fc1ccc(-c2nc3sccn3c2-c2ccnc(OCC3CC3)n2)cc1` [CL] are 256 nM and 218 nM.
Consider `CCC[C@@H](CO)Nc1nccc(-c2c(-c3ccc(F)cc3)nc3occn23)n1` [CVIII], for which the results for the IC50 (on p38α; in assay [1] (setting [2])) were 3.11 nM and 11.7 nM, respectively.
The corresponding values for `C[C@@H](O)[C@@H](CO)Nc1nccc(-c2c(-c3ccc(F)cc3)nc3occn23)n1` [CVII] are 63.8 nM and 112 nM.
The corresponding values for `CCC[C@H](CO)Nc1nccc(-c2c(-c3ccc(F)cc3)nc3occn23)n1` [CVI] are 5.2 nM and 30.6 nM.
The corresponding values for `C[C@H](CO)Nc1nccc(-c2c(-c3ccc(F)cc3)nc3occn23)n1` [CV] are 3.09 nM and 8.67 nM.
Regarding `CC(CO)Nc1nccc(-c2c(-c3ccc(F)cc3)nc3sccn23)n1` (stereo not drawn) [CXCIII], the results for the IC50 (against p38α; in assay [1] (setting [2])) were 6.19 nM and 8.38 nM, respectively.
Regarding `COc1ccc(CCNc2nccc(-c3c(-c4ccc(F)cc4)nc4occn34)n2)cc1` [CXIII], the IC50 turned out to be 7.88 nM on p38α and 127 nM in assay [1] (setting [2]).
The corresponding values for `Oc1ccc(CCNc2nccc(-c3c(-c4ccc(F)cc4)nc4occn34)n2)cc1` [CXII] are 3.45 nM and 13.1 nM.
Turning to `Fc1ccc(-c2nc3occn3c2-c2ccnc(NCc3nc4ccccc4[nH]3)n2)cc1` [CXIV], the IC50 against p38α came out at 183 nM; in assay [1] (setting [2]), 913 nM.
The corresponding values for `CCCC[C@H](CO)Nc1nccc(-c2c(-c3ccc(F)cc3)nc3occn23)n1` [CXI] are 11.2 nM and 65.9 nM.
The corresponding values for `Fc1ccc(CNc2nccc(-c3c(-c4ccc(F)cc4)nc4sccn34)n2)cc1` [CXLIV] are 54.1 nM and 182 nM.
The corresponding values for `Fc1ccc(-c2nc3sccn3c2-c2ccnc(OCc3ccccc3)n2)cc1` [CXLIX] are 152 nM and 391 nM.
`CC(C)(CO)Nc1nccc(-c2c(-c3ccc(F)cc3)nc3occn23)n1` [CXVIII]: the IC50 is 2.91 nM against p38α and 26.3 nM in assay [1] (setting [2]).
The corresponding values for `OC1(CNc2nccc(-c3c(-c4ccc(F)cc4)nc4occn34)n2)CCCCC1` [CXVII] are 20.6 nM and 47 nM.
On to `Fc1ccc(-c2nc3occn3c2-c2ccnc(NCCN3CCCCC3)n2)cc1` [CXVI], for which the figures for the concentration for half-maximal inhibition (IC50) (against p38α; in assay [1] (setting [2])) were 236 nM and 376 nM, respectively.
The corresponding values for `Nc1ccc(CCNc2nccc(-c3c(-c4ccc(F)cc4)nc4occn34)n2)cc1` [CXV] are 1.73 nM and 41.9 nM.
The corresponding values for `OC1(CNc2nccc(-c3c(-c4ccc(F)cc4)nc4occn34)n2)CCCc2ccccc21` (stereo not drawn) [CXXIII] are 27.2 nM and 99 nM.
The corresponding values for `NS(=O)(=O)c1ccc(CCNc2nccc(-c3c(-c4ccc(F)cc4)nc4occn34)n2)cc1` [CXXII] are 5.44 nM and 22.7 nM.
For `CC(CN(C)C)Nc1nccc(-c2c(-c3ccc(F)cc3)nc3occn23)n1` (stereo not drawn) [CXXIV], the figures for the IC50 (against p38α; in assay [1] (setting [2])) were 59.6 nM and 67.7 nM, respectively.
The corresponding values for `Fc1ccc(CCNc2nccc(-c3c(-c4ccc(F)cc4)nc4occn34)n2)cc1` [CXXI] are 11.2 nM and 26.4 nM.
The corresponding values for `NC(=O)[C@H](Cc1ccccc1)Nc1nccc(-c2c(-c3ccc(F)cc3)nc3occn23)n1` [CXXVIII] are 71 nM and 1390 nM.
The corresponding values for `CC(C)(Nc1nccc(-c2c(-c3ccc(F)cc3)nc3occn23)n1)C(O)c1ccccc1` (stereo not drawn) [CXXVII] are 28.5 nM and 249 nM.
Take `C[C@@H](Nc1nccc(-c2c(-c3ccc(F)cc3)nc3occn23)n1)C(N)=O` [CXXVI]: the figures for the IC50 (at p38α; in assay [1] (setting [2])) were 29.4 nM and 86.1 nM, respectively.
The corresponding values for `Fc1ccc(-c2nc3occn3c2-c2ccnc(NCCN3CCN(Cc4ccccc4)CC3)n2)cc1` [CXXV] are 258 nM and 1360 nM.
The corresponding values for `CS(=O)(=O)c1nccc(-c2c(-c3ccccc3)nc3sccn23)n1` [CXXXII] are 373 nM and > 10000 nM.
The corresponding values for `OC(CNc1nccc(-c2c(-c3ccc(F)cc3)nc3occn23)n1)COc1ccccc1` (stereo not drawn) [CXX] are 36.5 nM and 171 nM.
With `OC1CCCCC1Nc1nccc(-c2c(-c3ccc(F)cc3)nc3occn23)n1` (stereo not drawn) [CX], the IC50 is 21.8 nM against p38α and 15 nM in assay [1] (setting [2]).
The corresponding values for `CC(C)Nc1nccc(-c2c(-c3ccc(F)cc3)nc3occn23)n1` [C] are 0.893 nM and 3.19 nM.
Turning to `Fc1ccc(-c2nc3occn3c2-c2ccnc(NCCCN3CCOCC3)n2)cc1` [LIII], the IC50 on p38α was 361 nM; in assay [1] (setting [2]), 236 nM.
On to `OC(CNc1nccc(-c2c(-c3ccc(F)cc3)nc3occn23)n1)c1ccccc1` (stereo not drawn) [LII], for which the IC50 against p38α worked out at 54.5 nM; in assay [1] (LPS 10 μg/ml, 18 hours, read-out: TNFα (THP-1) IC50), 60.9 nM.
As for `OCC1(Nc2nccc(-c3c(-c4ccc(F)cc4)nc4occn34)n2)CCCC1` [LIV], the results for the IC50 (against p38α; in assay [1] (setting [2])) were 30.2 nM and 11.8 nM, respectively.
The corresponding values for `O[C@H]1CC[C@H](Nc2nccc(-c3c(-c4ccc(F)cc4)nc4occn34)n2)CC1` [LIX] are 1.79 nM and 55.4 nM.
The corresponding values for `Fc1ccc(-c2nc3occn3c2-c2ccnc(NCCc3ccncc3)n2)cc1` [LI] are 8.06 nM and 94.4 nM.
With `O[C@H]1Cc2ccccc2[C@H]1Nc1nccc(-c2c(-c3ccc(F)cc3)nc3occn23)n1` [LVIII], the figures for the 50% inhibitory concentration (IC50) (against p38α; in assay [1] (setting [2])) were 97.9 nM and 1190 nM, respectively.
The corresponding values for `OC(CNc1nccc(-c2c(-c3ccc(F)cc3)nc3occn23)n1)c1ccccc1` (stereo not drawn) [LVII] are 8.96 nM and 58.5 nM.
The corresponding values for `Fc1ccc(-c2nc3occn3c2-c2ccnc(NCCCn3ccnc3)n2)cc1` [LVI] are 14 nM and 96.9 nM.
The corresponding values for `OCCCCCCNc1nccc(-c2c(-c3ccc(F)cc3)nc3occn23)n1` [LV] are 23.1 nM and 25 nM.
Take `C[C@H](Nc1nccc(-c2c(-c3ccc(F)cc3)nc3occn23)n1)[C@H](O)c1ccccc1` [LXIII]: the values for the IC50 (against p38α; in assay [1] (setting [2])) were 38.5 nM and 87.4 nM, respectively.
The corresponding values for `O=C1OCC[C@H]1Nc1nccc(-c2c(-c3ccc(F)cc3)nc3occn23)n1` [LXII] are 453 nM and 258 nM.
The corresponding values for `CC[C@H](C)[C@@H](CO)Nc1nccc(-c2c(-c3ccc(F)cc3)nc3occn23)n1` [LXIV] are 174 nM and 13.2 nM.
The corresponding values for `O[C@H]1CCCC[C@@H]1Nc1nccc(-c2c(-c3ccc(F)cc3)nc3occn23)n1` [LXIX] are 83.3 nM and 11.4 nM.
Take `C[C@@H](Nc1nccc(-c2c(-c3ccc(F)cc3)nc3occn23)n1)[C@@H](O)c1ccccc1` [LXVIII]: the half-maximal inhibitory concentration (IC50) at p38α came to 79.1 nM; in assay [1] (setting [2]), 140 nM.
With `O=C1CCCN1CCCNc1nccc(-c2c(-c3ccc(F)cc3)nc3occn23)n1` [LXVII], the IC50 against p38α came to 33.4 nM; in assay [1] (setting [2]), 177 nM.
The corresponding values for `Fc1ccc(-c2nc3occn3c2-c2ccnc(NCCN3CCOCC3)n2)cc1` [LXVI] are 75.9 nM and 193 nM.
As for `CCCC[C@@H](CO)Nc1nccc(-c2c(-c3ccc(F)cc3)nc3occn23)n1` [LXV], the results for the IC50 (at p38α; in assay [1] (setting [2])) were 86.6 nM and 26.3 nM, respectively.
The corresponding values for `Fc1ccc(-c2nc3occn3c2-c2ccnc(NCc3ccncc3)n2)cc1` [LXXIII] are 234 nM and 96.6 nM.

The values above are taken from patent US20070270418A1, “Inhibitors of P38 and Methods of Using the Same” (priority 2003, published 2007).
